For this experiment, the system named is C. elegans.
Where [1] appears, read: Table S2, C. elegans SS assay, 110 μM, averages of 4 data points.
Setting [2] is: Table S2, C. elegans SS assay, 110 μM, 24 h, averages of 4 data points.

“And” between values parts separate entries of the source, which are not always exact repeats. Identical values can stand only once. Like-named read-outs stand apart in the source and are kept apart here.

As to `CC(C)(O)[C@H]1CC[C@@](C)([C@H]2[C@@H](O)C[C@@]3(C)[C@@H]4C[C@H](O)[C@H]5C(C)(C)[C@@H](O)CC[C@@]56C[C@@]46CC[C@]23C)O1` [Cyclogalegenin], the “Percentage of motility inhibition 0 h” value under setting [1] stood at 22%. Besides, the “Percentage of motility inhibition 24 h” value under setting [2] worked out at 9%.
On the same counts, the results for `CN[C@@H](C)[C@H]1[C@H](O)C[C@@]2(C)[C@@H]3CC[C@H]4C(C)(C)[C@@H](NC)CC[C@@]45C[C@@]35CC[C@]12C` [Cyclovirobuxine D] are 20% and 0%.
On the same counts, the results for `O=c1cc(-c2ccc(O)c(O)c2)oc2cc(O[C@@H]3O[C@H](CO)[C@@H](O)[C@H](O)[C@H]3O)cc(O)c12` [Cynaroside] are 20% and 0%.
In the same order, the values of `Cl.NCCS` [Cysteamine (hydrochloride)] are 23% and 6%.
For the compound `O=c1cccc2n1C[C@@H]1CNC[C@H]2C1` [Cytisinicline], the “Percentage of motility inhibition 24 h” value (110 µM) was 0% and 3%.
For `O=C(CO)[C@@H](O)[C@H](O)[C@H](O)CO` [D-Fructose], the “Percentage of motility inhibition 24 h” value under setting [2] was 15%.
Take `CC(C)(CO)[C@@H](O)C(=O)NCCC(=O)[O-].CC(C)(CO)[C@@H](O)C(=O)NCCC(=O)[O-].[Ca+2]` [D-Pantothenic acid (hemicalcium salt)]: under setting [1], the “Percentage of motility inhibition 0 h” value is on record as 48%. The “Percentage of motility inhibition 24 h” value under setting [2] turned out to be 1%.
As for `CC(C)(CO)[C@@H](O)C(=O)NCCC(=O)[O-].[Na+]` [D-Pantothenic acid (sodium)], the “Percentage of motility inhibition 0 h” value under setting [1] turned out to be 1%. Also, under setting [2], the “Percentage of motility inhibition 24 h” value worked out at 4%.
As to `CC(=O)Oc1c(C)c(C)c2c(c1C)CCC(C)(CCC[C@H](C)CCC[C@H](C)CCCC(C)C)O2` (stereo partly drawn) [D-α-Tocopherol acetate], the “Percentage of motility inhibition 0 h” value under setting [1] came to 7%. Further, under setting [2], the “Percentage of motility inhibition 24 h” value was determined as 22%.
As for `CCN(CC)C(=O)c1cccc(C)c1` [DEET], the “Percentage of motility inhibition 0 h” value under setting [1] worked out at 59%. The “Percentage of motility inhibition 24 h” value under setting [2] turned out to be 25%.
With `COc1ccc(CC2c3cc(OC)c(OC)cc3CCN2C)cc1OC` (stereo not drawn) [DL‐Laudanosine], under setting [1], the “Percentage of motility inhibition 0 h” value was 7%. The “Percentage of motility inhibition 24 h” value under setting [2] was determined as 12%.
With `COC(=O)N[C@H](C(=O)N1CCC[C@H]1c1ncc(-c2ccc(-c3ccc(-c4cnc([C@@H]5CCCN5C(=O)[C@@H](NC(=O)OC)C(C)C)[nH]4)cc3)cc2)[nH]1)C(C)C.Cl.Cl` [Daclatasvir (dihydrochloride)], the “Percentage of motility inhibition 0 h” value under setting [1] is recorded as 39%. Further, the “Percentage of motility inhibition 24 h” value under setting [2] was 2%.
On to `O=c1c(-c2ccc(O)cc2)coc2cc(O[C@@H]3O[C@H](CO)[C@@H](O)[C@H](O)[C@H]3O)ccc12` [Daidzin], for which the “Percentage of motility inhibition 0 h” value under setting [1] is 47% and 26%.
For the compound `CC(C)=CC/C=C(\C)[C@H]1CC[C@]2(C)[C@@H]1[C@H](O)C[C@@H]1[C@@]3(C)C[C@@H](O)[C@H](O[C@@H]4O[C@H](CO)[C@@H](O)[C@H](O)[C@H]4O[C@@H]4O[C@H](CO)[C@@H](O)[C@H](O)[C@H]4O)C(C)(C)[C@@H]3CC[C@]12C` [Damulin A], the “Percentage of motility inhibition 0 h” value under setting [1] was found to be 5%. In addition, the “Percentage of motility inhibition 24 h” value under setting [2] was 0%.
In the case of `CN1C[C@@H]2C[C@H]1CN2c1cc2c(cc1F)c(=O)c(C(=O)O)cn2C1CC1.CS(=O)(=O)O` [Danofloxacin (mesylate)], the “Percentage of motility inhibition 0 h” value under setting [1] is on record as 0%. Also, the “Percentage of motility inhibition 24 h” value under setting [2] worked out at 15%.
In the same order, the values of `CC(C)CN(C[C@@H](O)[C@H](Cc1ccccc1)NC(=O)O[C@H]1CO[C@H]2OCC[C@H]21)S(=O)(=O)c1ccc(N)cc1.CCO` [Darunavir (Ethanolate)] are 14% and 10%.
On the same counts, the results for `COc1cc2c(cc1O)[C@@H](Cc1ccc(O)c(Oc3ccc(C[C@@H]4c5cc(OC)c(OC)cc5CCN4C)cc3)c1)N(C)CC2` [Daurisoline] are 23% and 12%.
In the same order, the values of `O=C(O)C1=CO[C@@H](O[C@@H]2O[C@H](CO)[C@@H](O)[C@H](O)[C@H]2O)[C@@H]2C(CO)=C[C@H](O)[C@H]12` [Deacetylasperulosidic Acid] are 0% and 8%.
`C[C@@H]1O[C@@H](O[C@H]2[C@H](OC(=O)[C@]34CCC(C)(C)C[C@H]3C3=CC[C@@H]5[C@@]6(C)C[C@H](O)[C@H](O[C@@H]7O[C@H](CO)[C@@H](O)[C@H](O)[C@H]7O)C(CO)(CO)[C@@H]6CC[C@@]5(C)[C@]3(C)C[C@H]4O)OC[C@H](O)[C@@H]2O)[C@H](O)[C@H](O)[C@H]1O[C@@H]1OC[C@@H](O)[C@H](O)[C@H]1O` [Deapioplatycodin D]: the “Percentage of motility inhibition 0 h” value under setting [1] is 12%. Further, the “Percentage of motility inhibition 24 h” value under setting [2] is listed as 0%.
Regarding `C=C1CC[C@@H]2[C@](C)(COC(=O)CCC(=O)O)[C@H](OC(=O)CCC(=O)O)CC[C@@]2(C)[C@@H]1/C=C/C1=CCOC1=O` [Dehydroandrographolide succinate], the “Percentage of motility inhibition 0 h” value under setting [1] was 7% and 0%.
Consider `C=C1CC[C@@H]2[C@](C)(CO)[C@H](O)CC[C@@]2(C)[C@@H]1/C=C/C1=CCOC1=O` [Dehydroandrographolide], for which the “Percentage of motility inhibition 0 h” value under setting [1] was 0% and 4%. The “Percentage of motility inhibition 24 h” value under setting [2] was 7% and 9%.
As to `COc1cc2c(cc1OC)-c1c(C)c3ccc(OC)c(OC)c3c[n+]1CC2.[Cl-]` [Dehydrocorydaline (chloride)], under setting [1], the “Percentage of motility inhibition 0 h” value amounted to 0%. Also, the “Percentage of motility inhibition 24 h” value under setting [2] is 0%.
Turning to `COc1cc2c(cc1OC)-c1c(C)c3ccc(OC)c(OC)c3c[n+]1CC2.[OH-]` [Dehydrocorydaline (hydroxyl)], under setting [1], the “Percentage of motility inhibition 0 h” value worked out at 2%. Under setting [2], the “Percentage of motility inhibition 24 h” value was determined as 0%.
In the same order, the values of `COc1cc2c(cc1OC)-c1c(C)c3ccc(OC)c(OC)c3c[n+]1CC2.O=[N+]([O-])[O-]` [Dehydrocorydaline (nitrate)] are 5% and 0%.
Take `C=C(CC[C@@H](C(=O)O)[C@H]1CC[C@@]2(C)C3=CC[C@H]4C(C)(C)[C@@H](OC(C)=O)CC[C@]4(C)C3=CC[C@]12C)C(C)C` [Dehydroeburicoic acid monoacetate]: the “Percentage of motility inhibition 0 h” value under setting [1] turned out to be 20%. Further, the “Percentage of motility inhibition 24 h” value under setting [2] is recorded as 24%.
On the same counts, the results for `CN1C2=C3N=c4ccccc4=C3CCN2C(=O)c2ccccc21.Cl` [Dehydroevodiamine (hydrochloride)] are 8% and 1%.
On the same counts, the results for `C=C(CCC(C(=O)O)[C@H]1[C@H](O)C[C@@]2(C)C3=CC[C@H]4C(C)(C)[C@@H](OC(C)=O)CC[C@]4(C)C3=CC[C@]12C)C(C)C` (stereo partly shown) [Dehydropachymic acid] are 29% and 35%.
On the same counts, the results for `CC(C)Nc1cccnc1N1CCN(C(=O)c2cc3cc(NS(C)(=O)=O)ccc3[nH]2)CC1.CS(=O)(=O)O` [Delavirdine (mesylate)] are 22% and 16%.
For the compound `CN1CCN(c2ccc(N3C[C@H](CO)OC3=O)cc2F)C=N1` [Delpazolid], the “Percentage of motility inhibition 0 h” value under setting [1] is 2%. Also, the “Percentage of motility inhibition 24 h” value under setting [2] came to 3%.
In the same order, the values of `CN(C)[C@@H]1C(O)=C(C(N)=O)C(=O)[C@@]2(O)C(O)=C3C(=O)c4c(O)ccc(Cl)c4[C@@H](O)[C@H]3C[C@@H]12.Cl` [Demeclocycline (hydrochloride)] are 17% and 12%.
In the same order, the values of `C/C(=C\C=C\[C@@]1(C)OC(=O)[C@]23CC=C(C(=O)O)CC[C@]2(O)[C@H]1CC3)C(=O)O` [Demethoxydeacetoxypseudolaric acid B] are 0% and 0%.
Turning to `COc1ccc2cc3[n+](cc2c1OC)CCc1cc(O)c(O)cc1-3.[Cl-]` [Demethyleneberberine (chloride)], the “Percentage of motility inhibition 0 h” value under setting [1] was 0%. Besides, the “Percentage of motility inhibition 24 h” value under setting [2] was 13%.
For the compound `C[C@@]1(C(=O)O)CC[C@]2(C)CC[C@]3(C)C4=CC(=O)c5c(cc(O)c(O)c5C=O)[C@]4(C)CC[C@@]3(C)[C@@H]2C1` [Demethylzeylasteral], under setting [1], the “Percentage of motility inhibition 0 h” value came out at 0%. Moreover, the “Percentage of motility inhibition 24 h” value under setting [2] is given as 36%.
Take `CC(C)[C@@H]1[C@H]2OC(=O)[C@@H]1[C@@H]1CC[C@@H]3CN(C)[C@H]2[C@@]31C` [Dendrobine]: under setting [1], the “Percentage of motility inhibition 0 h” value was 0%. Further, the “Percentage of motility inhibition 24 h” value under setting [2] is given as 3%.
On the same counts, the results for `C[C@H](CCC(=O)[O-])[C@H]1CC[C@H]2[C@@H]3CC[C@@H]4C[C@H](O)CC[C@]4(C)[C@H]3C[C@H](O)[C@]12C.[Na+]` [Deoxycholic acid sodium salt] are 0% and 26%.
Take `C=C(C)C(=O)O[C@H]1CC2=C[C@@H](C/C(C)=C/[C@H]3OC(=O)C(=C)[C@H]13)OC2=O` [Deoxyelephantopin]: under setting [1], the “Percentage of motility inhibition 0 h” value amounted to 0%. Also, the “Percentage of motility inhibition 24 h” value under setting [2] is recorded as 9%.
On the same counts, the results for `CC1(C)OC2CC(=O)OCC23C1CC(=O)C1(C)C2=CC(=O)OC(c4ccoc4)C2(C)CCC13` (stereo not shown) [Deoxylimonin] are 9% and 50%.
`CC1(C)[C@@H](O[C@H]2O[C@H](C(=O)O)[C@@H](O)[C@H](O)[C@H]2O[C@@H]2O[C@H](C(=O)O)[C@@H](O)[C@H](O)[C@H]2O)CC[C@]2(C)[C@H]3C(=O)C=C4[C@@H]5C[C@@](C)(C(=O)O)CC[C@]5(C)CC[C@@]4(C)[C@]3(C)CC[C@@H]12.N.N` [Diammonium Glycyrrhizinate]: the “Percentage of motility inhibition 24 h” value under setting [2] was 4% and 11%.
On to `COc1cc(-c2coc3cc4c(c(O)c3c2=O)OCO4)cc(O)c1OC` [Dichotomitin], for which the “Percentage of motility inhibition 0 h” value under setting [1] worked out at 34%. In addition, the “Percentage of motility inhibition 24 h” value under setting [2] is 22%.

The values above are taken from article PMC11855827, “High-Throughput Screening of Five Compound Libraries for Anthelmintic Activity and Toxicity Leads to the Discovery of Two Flavonoid Compounds” (International Journal of Molecular Sciences, 2025).
